Patent publication US12497393B2, “β-lactam compound, use thereof and preparation method therefor” (priority 2020, dated 2025)
In brackets after ≈: the same amount, converted by molar mass. Like-named read-outs stand apart in the source and are kept apart here.

Experiments:
Test in all cases: Antibacterial activity MIC assay (two-fold dilution agar plating)
Assay type in all cases: cell-based
[1] = system: Proteus vulgaris
Method: (§1) Antibacterial Activity-Evaluating Method (MIC Assay)
(§2) In this study, the compounds of the present invention were tested for their antibacterial activities by using two-fold dilution agar plating method and Denley Multipoint Inoculator A400 according to the guidelines of the CLSI/NCCLS standard. The tested strains were amplified by hydrolyzed casein peptone (Mueller-Hinton Agar) broth and Brain and Heart Infusion. The strains used in this study were bacterial strains that were purchased from ATCC or clinically isolated in Chinese hospitals. Aztreonam, polymyxin or levofloxacin was used as positive control. The drugs were diluted with hydrolyzed casein peptone broth to the desired concentrations including 128.0, 64.0, 32.0, 16.0, 8.0, 4.0, 2.0, 1.0, 0.5, 0.25, 0.125, 0.06 and 0.03 μg/mL, and then placed respectively into each well and mixed thoroughly. After inoculation, the tested strains were incubated for 18 hours at a constant temperature of 35° C., and their growth levels were observed. The drug concentration with no microbial growth in the well was recorded as the lowest Minimal Inhibitory Concentration (MIC).

[2] = system: Escherichia coli; conditions: for MIC: Escherichia coli, read-out: Minimal Inhibitory Concentration (MIC)
Method: as §1, §2

[3] = system: Shigella flexneri; conditions: Shigella flexneri ATCC 12022
Method: as §1, §2

[4] = system: Providencia rettgeri
Method: as §1, §2

[5] = system: Enterobacter aerogenes; conditions: Enterobacter aerogenes ATCC 13048
Method: as §1, §2

[6] = system: Proteus mirabilis
Method: as §1, §2

[7] = system: Enterobacter cloacae; conditions: for MIC: read-out: Minimal Inhibitory Concentration (MIC)
Method: as §1, §2

[8] = system: Salmonella typhi
Method: as §1, §2

[9] = system: Citrobacter freundii; conditions: Citrobacter freundii ATCC 43864
Method: as §1, §2

[10] = system: Klebsiella Pneumoniae; conditions: for MIC: Klebsiella pneumoniae, read-out: Minimal Inhibitory Concentration (MIC)
Method: as §1, §2

[11] = system: Serratia marcescens; conditions: Serratia marcescens ATCC 21074
Method: as §1, §2

[12] = system: Stenotrophomonas maltophilia; conditions: Stenotrophomonas maltophilia ATCC 13636
Method: as §1, §2

[13] = system: Acinetobacter baumannii; conditions: for MIC: Acinetobacter baumannii, read-out: Minimal Inhibitory Concentration (MIC)
Method: as §1, §2

[14] = system: Pseudomonas aeruginosa; conditions: for MIC: read-out: Minimal Inhibitory Concentration (MIC)
Method: as §1, §2

[15] = Escherichia coli 08-85, mcr-1(+)
[16] = Escherichia coli 13-43, mcr-1(+)
[17] = Escherichia coli 13-66, mcr-1(+)
[18] = Escherichia coli 16-1, ESBLs(+)
[19] = Escherichia coli 16-7, ESBLs(−)
[20] = Escherichia coli CDC1001728, NDM-1(+)
[21] = Enterobacter cloacae CDC1000654
[22] = Klebsiella Pneumoniae 09-20, mcr-1(+)
[23] = Klebsiella Pneumoniae 16-2, ESBLs(−)
[24] = Klebsiella Pneumoniae 16-14, ESBLs(+)

Q: How did the “Minimal Inhibitory Concentration (MIC)” value ([1]; Proteus vulgaris ATCC 29905) turn out when `C#CCON=C(C(=O)NC1C(=O)N(OS(=O)(=O)O)C1(C)C)c1csc(N)n1` (stereo not shown) [Compound B-2] was run?
A: Its value is ≤0.03 mg/L.

Q: And the “Minimal Inhibitory Concentration (MIC)” value [2, 15]?
A: The value was 0.5 mg/L.

Q: And the “Minimal Inhibitory Concentration (MIC)” value [2, 16]?
A: Its value is 1 mg/L.

Q: And the “Minimal Inhibitory Concentration (MIC)” value [2, 17]?
A: The value was 1 mg/L.

Q: What about the “Minimal Inhibitory Concentration (MIC)” value [2, 18] of the same compound?
A: The value was 0.25 mg/L.

Q: What about the “Minimal Inhibitory Concentration (MIC)” value [2, 19] of the same compound?
A: The value was 0.5 mg/L.

Q: What about the “Minimal Inhibitory Concentration (MIC)” value ([2]; Escherichia coli ATCC 25922, ESBLs(−)) of the same compound?
A: Its value is 0.5 mg/L.

Q: And the “Minimal Inhibitory Concentration (MIC)” value ([2]; Escherichia coli ATCC 35218, ESBLs(+))?
A: The value was 0.25 mg/L.

Q: And the “Minimal Inhibitory Concentration (MIC)” value [2, 20]?
A: Its value is 4 mg/L.

Q: And the “Minimal Inhibitory Concentration (MIC)” value [3]?
A: Its value is 0.5 mg/L.

Q: And the “Minimal Inhibitory Concentration (MIC)” value ([4]; Providencia rettgeri ATCC 31052)?
A: Its value is ≤0.03 mg/L.

Q: And the “Minimal Inhibitory Concentration (MIC)” value [5]?
A: The value was 1 mg/L.

Q: And the “Minimal Inhibitory Concentration (MIC)” value ([6]; Proteus mirabilis ATCC 49565)?
A: Its value is 0.06 mg/L.

Q: What about the “Minimal Inhibitory Concentration (MIC)” value ([7]; Enterobacter cloacae ATCC 43560) of the same compound?
A: Its value is 0.5 mg/L.

Q: What about the “Minimal Inhibitory Concentration (MIC)” value [7, 21] of the same compound?
A: The value was 8 mg/L.

Q: And the “Minimal Inhibitory Concentration (MIC)” value ([8]; Salmonella typhi H901)?
A: Its value is 0.5 mg/L.

Q: What about the “Minimal Inhibitory Concentration (MIC)” value [9] of the same compound?
A: The value was 0.5 mg/L.

Q: And the “Minimal Inhibitory Concentration (MIC)” value [10, 22]?
A: The value was 1 mg/L.

Q: What about the “Minimal Inhibitory Concentration (MIC)” value [10, 23] of the same compound?
A: Its value is 0.5 mg/L.

Q: And the “Minimal Inhibitory Concentration (MIC)” value [10, 24]?
A: Its value is 1 mg/L.

Q: And the “Minimal Inhibitory Concentration (MIC)” value ([10]; Klebsiella Pneumoniae ATCC 700603, ESBLs(+))?
A: The value was 16 mg/L.

Q: And the “Minimal Inhibitory Concentration (MIC)” value ([10]; Klebsiella Pneumoniae ATCC BAA-2146, NDM-1(+))?
A: The value was 8 mg/L.

Q: And the “Minimal Inhibitory Concentration (MIC)” value [11]?
A: The value was 0.5 mg/L.

Q: What about the “Minimal Inhibitory Concentration (MIC)” value [12] of the same compound?
A: The value was 32 mg/L.

Q: And the “Minimal Inhibitory Concentration (MIC)” value ([13]; Acinetobacter baumannii 16-16)?
A: The value was 32 mg/L.

Q: What about the “Minimal Inhibitory Concentration (MIC)” value ([13]; Acinetobacter baumannii 16-33) of the same compound?
A: The value was 4 mg/L.

Q: What about the “Minimal Inhibitory Concentration (MIC)” value ([13]; Acinetobacter baumannii ATCC 19606) of the same compound?
A: Its value is 4 mg/L.

Q: What about the “Minimal Inhibitory Concentration (MIC)” value ([14]; Pseudomonas aeruginosa 16-11) of the same compound?
A: The value was >64 mg/L.

Q: What about the “Minimal Inhibitory Concentration (MIC)” value ([14]; Pseudomonas aeruginosa ATCC 27853) of the same compound?
A: Its value is >64 mg/L.

Q: What about the “Minimal Inhibitory Concentration (MIC)” value ([14]; Pseudomonas aeruginosa PAO1) of the same compound?
A: The value was 32 mg/L.

Q: With `C[C@H]1COc2c(N3CCN(C)CC3)c(F)cc3c(=O)c(C(=O)O)cn1c23` [Levofloxacin, levofloxacin, reference compound] as the compound, how does the MIC ([1]; Proteus vulgaris, ATCC29905, Proteus vulgaris ATCC 29905, read-out: Minimal Inhibitory Concentration (MIC)) read?
A: Its MIC is ≤ 0.03 mg/L.

Q: And the MIC ([2]; ATCC25922, Escherichia coli ATCC 25922, ESBLs(−))?
A: The MIC was ≤ 0.03 mg/L.

Q: And the MIC ([2]; ATCC35218, Escherichia coli ATCC 35218, ESBLs(+))?
A: Its MIC is ≤ 0.03 mg/L.

Q: And the MIC [2, 15]?
A: Its MIC is 16 mg/L (≈ 44.3 µM).

Q: What about the MIC [2, 16] of the same compound?
A: The MIC was 32 mg/L (≈ 88.6 µM).

Q: What about the MIC [2, 17] of the same compound?
A: Its MIC is 32 mg/L (≈ 88.6 µM).

Q: What about the MIC [2, 18] of the same compound?
A: The MIC was 0.5 mg/L (≈ 1.38 µM).

Q: What about the MIC [2, 19] of the same compound?
A: The MIC was 0.5 mg/L (≈ 1.38 µM).

Q: What about the MIC ([2]; Escherichia coli 17-R28, CRE, NDM-1(+)) of the same compound?
A: The MIC was 8 mg/L (≈ 22.1 µM).

Q: And the MIC [2, 20]?
A: Its MIC is 8 mg/L (≈ 22.1 µM).

Q: What about the MIC ([3]; ATCC12022, read-out: Minimal Inhibitory Concentration (MIC)) of the same compound?
A: Its MIC is 0.06 mg/L (≈ 0.166 µM).

Q: And the MIC ([4]; Providencia rettgeri, ATCC31052, Providencia rettgeri ATCC 31052, read-out: Minimal Inhibitory Concentration (MIC))?
A: The MIC was ≤ 0.03 mg/L.

Q: What about the MIC ([5]; Klebsiella aerogenes, ATCC13048, read-out: Minimal Inhibitory Concentration (MIC)) of the same compound?
A: Its MIC is 0.06 mg/L (≈ 0.166 µM).

Q: And the MIC ([6]; Proteus mirabilis, ATCC49565, Proteus mirabilis ATCC 49565, read-out: Minimal Inhibitory Concentration (MIC))?
A: The MIC was ≤ 0.03 mg/L.

Q: And the MIC ([7]; ATCC43560, Enterobacter cloacae ATCC 43560)?
A: Its MIC is ≤ 0.03 mg/L.

Q: What about the MIC [7, 21] of the same compound?
A: The MIC was 32 mg/L (≈ 88.6 µM).

Q: What about the MIC ([8]; Salmonella enterica, TYPHI, read-out: Minimal Inhibitory Concentration (MIC)) of the same compound?
A: The MIC was ≤ 0.03 mg/L.

Q: And the MIC ([9]; ATCC43864, read-out: Minimal Inhibitory Concentration (MIC))?
A: The MIC was ≤ 0.03 mg/L.

Q: And the MIC ([10]; ATCC700603, Klebsiella Pneumoniae ATCC 700603, ESBLs(+))?
A: The MIC was 0.5 mg/L (≈ 1.38 µM).

Q: What about the MIC ([10]; ATCCBAA2146, Klebsiella Pneumoniae ATCC BAA-2146, NDM-1(+)) of the same compound?
A: The MIC was 128 mg/L (≈ 354 µM).

Q: And the MIC [10, 22]?
A: Its MIC is 16 mg/L (≈ 44.3 µM).

Q: What about the MIC [10, 23] of the same compound?
A: The MIC was 0.06 mg/L (≈ 0.166 µM).

Q: And the MIC [10, 24]?
A: The MIC was 0.5 mg/L (≈ 1.38 µM).

Q: What about the MIC ([11]; ATCC21074, read-out: Minimal Inhibitory Concentration (MIC)) of the same compound?
A: The MIC was 0.12 mg/L (≈ 0.332 µM).

Q: And the MIC ([12]; ATCC13636, read-out: Minimal Inhibitory Concentration (MIC))?
A: The MIC was 2 mg/L (≈ 5.53 µM).

Q: What about the MIC ([13]; ATCC19606, Acinetobacter baumannii ATCC 19606) of the same compound?
A: Its MIC is 0.25 mg/L (≈ 0.692 µM).

Q: And the MIC ([13]; Acinetobacter baumannii 16-16)?
A: The MIC was 16 mg/L (≈ 44.3 µM).

Q: And the MIC ([13]; Acinetobacter baumannii 16-33)?
A: Its MIC is 2 mg/L (≈ 5.53 µM).

Q: And the MIC ([14]; ATCC27853, Pseudomonas aeruginosa ATCC 27853)?
A: The MIC was 1 mg/L (≈ 2.77 µM).

Q: And the MIC ([14]; Pseudomonas aeruginosa 16-11)?
A: Its MIC is 0.5 mg/L (≈ 1.38 µM).

Q: What about the MIC ([14]; Pseudomonas aeruginosa PAO1) of the same compound?
A: The MIC was 4 mg/L (≈ 11.1 µM).
